Data set [1] is described as follows: Solubility and stability of O3 in aqueous and organic solvents. The format is physicochemical. The settings on record: bipolar solvent versus water or heptane alone. How it is done: The amount of oil to be employed in the bipolar solution was determined by its solubility in n-heptane and bipolar solvent. With an addition of 2.5 ml of distilled deionized water (about 5%) to a homogenous solution 50 ml of n-heptane and 50 ml of acetic acid, the solution was separated into two distinct phases: the n-heptane containing PAHs and other hydrophobic intermediates, and acetic acid phase (95% of acetic acid/5% DD water) containing the hydrophilic byproducts. In this example, about 480 mg/L of oil in the bipolar solvent was ozonated for different durations and the solution contents were analyzed accordingly. Both byproducts in the n-heptane phase and in the 95% acetic acid phase were analyzed by GC/FID, GC/FPD, and GC/MS after the separation. Ozone stability in different solvents: bipolar solvent, n-heptane, 95% acetic acid/5% DD water, and pure acetic acid were also tested by stopping after 20 minutes of ozonation and monitoring the ozone concentration immediately after.
Ozone was generated by an ozone generator (Model T-816, Polymetrics Corp.) from dry and filtered air at an applied voltage of 65V an air flow rate of 2 L/min. The concentration of ozone in the bipolar solvent was determined by absorbance at 270 nm with a spectrophotometer (HP 8452 UV-Vis spectrophotometer, Hewlett Packard Co.) using a predetermined extinction coefficient of 1955 M^−1 cm^−1. […]

Data set [2] can be described thus: Ozonation reaction kinetics of spilt oil constituents in bipolar solvent. The settings on record: for tentative estimated pseudo-first-order rate constant k′: ozonation of spilt oil (480 mg/L) in n-heptane/acetic acid 1:1 bipolar solvent, about 20° C.; for behaviour under ozonation in the bipolar solvent: spilt oil constituents. The format is physicochemical. The text has this: In this work example, an innovative treatment is developed for spilt oils from southern Kuwait desert that involves ozonation in a homogeneous solvent system. The solvent is constituted of miscible n-heptane and acetic acid (1:1 by volume), both of that are relatively inexpensive, environmentally benign, and biodegradable. The solvent system allows dissolution of oil in its non-polar heptane constituent, while the hydrophilic acetic acid keeps the progressively more polar intermediates and byproducts being formed from ozonation of oil in solution as the reaction continues. The n-heptane and acetic acid were chosen because of their relatively slow reaction rate with ozone (kO3[M^−1 s^−1] about 10^−3˜1 for alkanes and 3×10^−5 for acetic acid.
The amount of oil to be employed in the bipolar solution was determined by its solubility in n-heptane and bipolar solvent.
The pseudo-first order rate constants were evaluated by linear regression of all data according to the equations given below. The reaction of ozone with contaminants can be expressed as a second order reaction: −dCA/dt=kCA[O3] (1) where: dCA/dt=rate of reaction of contaminant k=reaction rate constant CA=concentration of contaminant [O3]=concentration of ozone
In the present of excess and constant ozone concentration, the rate law for the reaction can be considered as pseudo-first order: −dCA/dt=k′CA (2)
A glass batch reactor with a working volume of 300 mL was used. Mixing in the reactor was provided by a magnetic mixer operating at 250 rpm. […] Ozone was sparged into the reactor near the bottom through a glass dispersion tube (ACE glass Inc.) Reaction batches were stopped after 0.25, 0.5, 1, 2, 3, 4, 5, 10, 20, 40, 60, 120, and 180 minutes of ozonation. Residual ozone was removed from solution by purging with a gentle N2 stream for 1 min. Samples were kept in 2-mL vials and preserved at 5° C. if necessary prior to GC analysis. Qualitative and quantitative analyses of oil and oxidized oil were performed simultaneously. All samples were concentrated by a gentle stream of N2 gas to best retain the intermediates with lower molecular weights.

Data set [3] can be described thus: Saturated aqueous solution (dissolution equilibrium in water). The settings on record: equilibrium overnight, 0.45-μm filtered.
Data set [4] can be described thus: Mass and COD balance of PAH-packed column fed with ozonated water. The conditions noted are these: pyrene-loaded column, 4 h ozonation.

Take `O=[O+][O-]` [Ozone]: the “solubility and stability of O3” value in data set [1] was “higher solubility and stability”.
On to `CCC(C)CCCC(C)CCCC(C)CCCC(C)C` (stereo not drawn) [Phytane], for which, in data set [2], the “tentative estimated pseudo-first-order rate constant k′” value is 0.0178 s⁻¹ and the “behaviour under ozonation in the bipolar solvent” value was “relatively resistant to ozonation”. For the same compound, in data set [2] (listed as phytane), the “tentative estimated pseudo-first-order rate constant k′” value is 0.0178 s⁻¹.
Regarding `c1cc2ccc3cccc4ccc(c1)c2c34` [Pyrene], in data set [3], the “saturated aqueous solution concentration” value is reported as 0.13 ppm. The same compound gave a total amount degraded in data set [4] of 0.365 mmol.
Take `CCCCCCCCCCCCCCCCCCCC` [nC20, Icosane]: in data set [2], the “tentative estimated pseudo-first-order rate constant k′” value was 0.00198 s⁻¹ and the “behaviour under ozonation in the bipolar solvent” value is “relatively resistant to ozonation”. Moreover, the “tentative estimated pseudo-first-order rate constant k′” value in data set [2] (listed as n-icosane) is 0.00198 s⁻¹.
